Results from EPA's CvTdb concentration-time database.
Several values for one entry are separate records, joined by “and”; a condition that tells them apart may be missing. Identical values can stand only once.

Experiments:
Rat [1] = experiment: concentration in plasma after dosing
Rat [2] = experiment: concentration in liver after dosing; details: dosed: Fluorotelomer alcohol 8+2, oral
Rat [3] = experiment: concentration in kidney after dosing; details: dosed: Fluorotelomer alcohol 8+2, oral
Rat [4] = experiment: concentration in brain after dosing; details: dosed: Fluorotelomer alcohol 8+2, oral
rat [5] = experiment: concentration in blood after dosing; negative times count back from the end of exposure; details: dosed: tert-amyl methyl ether, inhalation, duration: 6 hr, male, F344 (Charles River)

Cc1ccc(C)c(OCCCC(C)(C)C(=O)O)c1 [Gemfibrozil]
concentration in plasma [ng/mL], Rat [1], dosed: Gemfibrozil, oral, Male, Sprague-Dawley
Details | 4.29 mg/kg | 50 mg/kg | 100 mg/kg
0.25 h | 250 | 17900 | 67400
0.5 h | 314 | 15700 | 34600
1 h | 147 | 5640 | 26200
2 h | 307 | 3310 | 8500
4 h | 566 | 8040 | 6870
5 min | 395 | 1580 | 13300
6 h | 401 | 9040 | 19600
10 h | 286 | 4860 | –
10 min | 2260 | 7420 | 40200
15 h | 137 | 1870 | –
18 h | 108 | 975 | 2190
24 h | 128 | 920 | 1800

O=C(O)CCC(F)(F)C(F)(F)C(F)(F)C(F)(F)C(F)(F)C(F)(F)C(F)(F)F [Fluorotelomer acid 7+3]
Details | concentration in brain, Rat [4] [ng/g] | concentration in kidney, Rat [3] [ng/g] | concentration in liver, Rat [2] [ng/g]
0.5 h, 24 mg/kg, Male, Harlan Sprague Dawley | 109 | 224 | 300
0.5 h, 24 mg/kg, Male, Harlan Sprague Dawley - this seems too small | 47.2 | 129 | 195
0.5 h, 80 mg/kg, Female, Harlan Sprague Dawley | 139 | 418 | 1070
1 h, 24 mg/kg, Male, Harlan Sprague Dawley | 130 | 291 | 784
1 h, 80 mg/kg, Female, Harlan Sprague Dawley | 391 | 883 | 2270
3 h, 24 mg/kg, Male, Harlan Sprague Dawley | 425 | 1640 | 3250
3 h, 80 mg/kg, Female, Harlan Sprague Dawley | 870 | 3250 | 8230
6 h, 24 mg/kg, Male, Harlan Sprague Dawley | 365 | 1200 | 3160
6 h, 80 mg/kg, Female, Harlan Sprague Dawley | 1250 | 6470 | 8110
12 h, 24 mg/kg, Male, Harlan Sprague Dawley | 222 | 930 | 2590
12 h, 80 mg/kg, Female, Harlan Sprague Dawley | 632 | 3150 | 9470

Rat [1]
Details | concentration in plasma [ng/mL]
0.25 h, dosed: 678-39-7, 12 mg/kg, iv, Male, F344 | 45.5
0.25 h, dosed: 678-39-7, 40 mg/kg, iv, Male, F344 | 80.9
0.25 h, dosed: Fluorotelomer alcohol 8+2, 12 mg/kg, oral, Male, Harlan Sprague Dawley | 21.6
0.5 h, dosed: 678-39-7, 12 mg/kg, iv, Male, F344 | 157
0.5 h, dosed: 678-39-7, 40 mg/kg, iv, Female, Harlan Sprague-Dawley | 400
0.5 h, dosed: 678-39-7, 40 mg/kg, iv, Male, F344 | 640
0.5 h, dosed: Fluorotelomer alcohol 8+2, 12 mg/kg, oral, Male, Harlan Sprague Dawley | 123
0.75 h, dosed: 678-39-7, 12 mg/kg, iv, Male, F344 | 242
0.75 h, dosed: 678-39-7, 40 mg/kg, iv, Female, Harlan Sprague-Dawley | 773
0.75 h, dosed: Fluorotelomer alcohol 8+2, 12 mg/kg, oral, Male, Harlan Sprague Dawley | 405
1 h, dosed: 678-39-7, 12 mg/kg, iv, Male, F344 | 455
1 h, dosed: 678-39-7, 40 mg/kg, iv, Female, Harlan Sprague-Dawley | 1490
1 h, dosed: Fluorotelomer alcohol 8+2, 12 mg/kg, oral, Male, Harlan Sprague Dawley | 317
3 h, dosed: 678-39-7, 12 mg/kg, iv, Male, F344 | 700
3 h, dosed: 678-39-7, 40 mg/kg, iv, Male, F344 | 2420
3 h, dosed: Fluorotelomer alcohol 8+2, 12 mg/kg, oral, Male, Harlan Sprague Dawley | 794
5 min, dosed: 678-39-7, 12 mg/kg, iv, Male, F344 | 8.32
5 min, dosed: 678-39-7, 40 mg/kg, iv, Male, F344 | 21.4
6 h, dosed: 678-39-7, 12 mg/kg, iv, Male, F344 | 762
6 h, dosed: 678-39-7, 40 mg/kg, iv, Male, F344 | 1630
6 h, dosed: Fluorotelomer alcohol 8+2, 12 mg/kg, oral, Male, Harlan Sprague Dawley | 619
9 h, dosed: 678-39-7, 12 mg/kg, iv, Male, F344 | 110
9 h, dosed: 678-39-7, 40 mg/kg, iv, Female, Harlan Sprague-Dawley | 366
9 h, dosed: 678-39-7, 40 mg/kg, iv, Male, F344 | 481
9 h, dosed: Fluorotelomer alcohol 8+2, 12 mg/kg, oral, Male, Harlan Sprague Dawley | 143
12 h, dosed: 678-39-7, 12 mg/kg, iv, Male, F344 | 63.3
12 h, dosed: 678-39-7, 40 mg/kg, iv, Female, Harlan Sprague-Dawley | 130
12 h, dosed: Fluorotelomer alcohol 8+2, 12 mg/kg, oral, Male, Harlan Sprague Dawley | 159
24 h, dosed: 678-39-7, 12 mg/kg, iv, Male, F344 | 98.6
24 h, dosed: 678-39-7, 40 mg/kg, iv, Female, Harlan Sprague-Dawley | 498
24 h, dosed: Fluorotelomer alcohol 8+2, 12 mg/kg, oral, Male, Harlan Sprague Dawley | 189
48 h, dosed: Fluorotelomer alcohol 8+2, 12 mg/kg, oral, Male, Harlan Sprague Dawley | 112
192 h, dosed: 678-39-7, 12 mg/kg, iv, Male, F344 | 22.5
192 h, dosed: 678-39-7, 40 mg/kg, iv, Male, F344 | 134
192 h, dosed: Fluorotelomer alcohol 8+2, 12 mg/kg, oral, Male, Harlan Sprague Dawley | 42.1
192 h, dosed: Fluorotelomer alcohol 8+2, 24 mg/kg, oral, Male, Harlan Sprague Dawley | 53

CCC(C)(C)OC [tertiary amyl methyl ether]
rat [5]
Details | concentration in blood
0.2936 h, 2500 ppm | 40.1 µg/mL
0.2946 h, 2500 ppm | 38.2 µg/mL
0.2952 h, 2500 ppm | 37.1 µg/mL
0.4294 h, 100 ppm | 0.828 µg/mL
0.4521 h, 100 ppm | 1.04 µg/mL
0.454 h, 100 ppm | 0.626 µg/mL
0.4709 h, 500 ppm | 5.8 µg/mL
0.4728 h, 500 ppm | 4.75 µg/mL
0.4735 h, 500 ppm | 4.38 µg/mL
0.8269 h, 2500 ppm | 31.5 µg/mL
0.8277 h, 2500 ppm | 30 µg/mL
0.8285 h, 2500 ppm | 28.5 µg/mL
0.8324 h, 2500 ppm | 20.9 µg/mL
0.9984 h, 100 ppm | 0.528 µg/mL
0.9987 h, 100 ppm | 0.47 µg/mL
0.9992 h, 100 ppm | 0.366 µg/mL
1.018 h, 500 ppm | 3.64 µg/mL and 3.27 µg/mL
1.021 h, 500 ppm | 1.85 µg/mL
1.733 h, 100 ppm | 0.268 µg/mL
1.755 h, 100 ppm | 0.523 µg/mL
1.756 h, 100 ppm | 0.418 µg/mL
1.756 h, 500 ppm | 1.48 µg/mL
1.757 h, 500 ppm | 0.741 µg/mL
1.926 h, 2500 ppm | 12 µg/mL
1.927 h, 2500 ppm | 9.45 µg/mL
1.928 h, 2500 ppm | 6.65 µg/mL
3.92 h, 2500 ppm | 4.45 µg/mL
3.921 h, 2500 ppm | 2.07 µg/mL
3.993 h, 500 ppm | 0.37 µg/mL
9.964 h, 500 ppm | 0.0617 µg/mL
17.98 h, 2500 ppm | 0.042 µg/mL
176 s, 100 ppm | 1.24 µg/mL
260 s, 100 ppm | 1.35 µg/mL
269 s, 100 ppm | 0.782 µg/mL
284 s, 500 ppm | 10.6 µg/mL
292 s, 500 ppm | 9.51 µg/mL
299 s, 500 ppm | 8.4 µg/mL
309 s, 500 ppm | 6.91 µg/mL

rat [5], during exposure
Details | concentration in blood
-254 s, 2500 ppm | 82.7 µg/mL
-248 s, 2500 ppm | 79.2 µg/mL
-228 s, 500 ppm | 18.6 µg/mL
-5.888 h, 2500 ppm | 24.9 µg/mL
-5.887 h, 100 ppm | 1.06 µg/mL
-5.887 h, 2500 ppm | 22.4 µg/mL
-5.886 h, 2500 ppm | 20 µg/mL
-5.884 h, 2500 ppm | 17.2 µg/mL
-5.883 h, 2500 ppm | 14.4 µg/mL
-5.878 h, 500 ppm | 2.96 µg/mL
-5.864 h, 100 ppm | 1.19 µg/mL
-5.863 h, 100 ppm | 1.13 µg/mL
-5.858 h, 2500 ppm | 27.5 µg/mL
-5.853 h, 500 ppm | 6.98 µg/mL
-5.85 h, 500 ppm | 5.56 µg/mL
-5.848 h, 500 ppm | 4.01 µg/mL
-5.841 h, 100 ppm | 1.46 µg/mL
-5.522 h, 2500 ppm | 37.7 µg/mL
-5.521 h, 2500 ppm | 36.2 µg/mL
-5.494 h, 2500 ppm | 44.1 µg/mL
-5.492 h, 2500 ppm | 41.1 µg/mL
-5.475 h, 500 ppm | 9.57 µg/mL
-5.474 h, 500 ppm | 9.2 µg/mL
-5.464 h, 100 ppm | 1.66 µg/mL and 1.61 µg/mL
-5.442 h, 100 ppm | 2.03 µg/mL
-5.158 h, 2500 ppm | 56.7 µg/mL
-5.157 h, 2500 ppm | 55.1 µg/mL
-5.131 h, 2500 ppm | 64.2 µg/mL
-5.129 h, 2500 ppm | 60.3 µg/mL
-5.111 h, 100 ppm | 2.08 µg/mL
-5.109 h, 100 ppm | 1.56 µg/mL
-5.099 h, 500 ppm | 13.5 µg/mL
-5.093 h, 500 ppm | 10.6 µg/mL
-5.092 h, 100 ppm | 3.06 µg/mL
-5.089 h, 100 ppm | 2.49 µg/mL
-4.169 h, 100 ppm | 2.96 µg/mL
-4.167 h, 100 ppm | 2.49 µg/mL
-4.165 h, 100 ppm | 2.18 µg/mL
-4.07 h, 100 ppm | 1.98 µg/mL
-4.067 h, 2500 ppm | 51.5 µg/mL
-4.046 h, 2500 ppm | 72 µg/mL
-4.045 h, 2500 ppm | 69.4 µg/mL
-4.044 h, 2500 ppm | 66.6 µg/mL
-4.016 h, 500 ppm | 15 µg/mL
-3.979 h, 500 ppm | 12 µg/mL
-2.249 h, 2500 ppm | 85.7 µg/mL
-2.248 h, 2500 ppm | 83.4 µg/mL
-1.978 h, 500 ppm | 17.8 µg/mL
-1.975 h, 500 ppm | 16.4 µg/mL
-1.969 h, 100 ppm | 2.86 µg/mL
-1.968 h, 100 ppm | 2.6 µg/mL
-1.948 h, 100 ppm | 3.32 µg/mL
-1.945 h, 100 ppm | 2.76 µg/mL
-0.1231 h, 500 ppm | 16.4 µg/mL
-0.1186 h, 500 ppm | 13.9 µg/mL
-0.1052 h, 2500 ppm | 89.6 µg/mL
-0.1033 h, 100 ppm | 3.44 µg/mL
-0.1027 h, 100 ppm | 3.32 µg/mL
-0.1027 h, 2500 ppm | 84.6 µg/mL
-0.1008 h, 100 ppm | 2.91 µg/mL
